This passage reports GI50 and TGI results from PubChem BioAssay (NCI).

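Method: 48-hour compound exposure of cells in 96-well plates, five concentrations, linear interpolation of endpoints. Abbreviation: GI50, concentration required for 50% inhibition of growth. The concentration for full growth arrest is given as TGI.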 Some results are limits rather than exact numbers.

Some test systems named below: A498 renal; HCC-2998 colon; HCT-116 colon; IGROV1 ovarian; M14 melanoma; OVCAR-4 ovarian; SF-268 CNS; SF-295 CNS; SK-MEL-28 melanoma; UACC-62 melanoma.
Holding throughout (assay): NCI anticancer screen, dose series, 48 h

With `CC1(C)CC[C@H](Nc2ncc(C(F)(F)F)c(-c3c[nH]c4c(P(C)(C)=O)c(C#N)ccc34)n2)CN1`, the GI50 with A498 renal was 1.76 µM; with HCC-2998 colon, 0.0375 µM; in the assay with HCT-116 colon, below 0.01 µM; in the assay on IGROV1 ovarian, 0.0231 µM; with M14 melanoma, 0.0759 µM; in the assay with OVCAR-4 ovarian, 0.365 µM. Further, the GI50 in the assay with SF-268 CNS is 1.17 µM; in the assay on SF-295 CNS, 0.0267 µM; in the assay with SK-MEL-28 melanoma, below 0.01 µM; in the assay on UACC-62 melanoma, below 0.01 µM. Moreover, the TGI in the assay with A498 renal was 8.85 µM; in the assay with HCC-2998 colon it was 11.6 µM; in the assay on HCT-116 colon it was 12.1 µM; with IGROV1 ovarian it was 14.5 µM; in the assay on M14 melanoma it was 6.69 µM; in the assay with OVCAR-4 ovarian it was 6.89 µM. In addition, the TGI was found to be 12.9 µM in the assay on SF-268 CNS, 13.5 µM with SF-295 CNS, 9.2 µM in the assay on SK-MEL-28 melanoma and 2.19 µM in the assay with UACC-62 melanoma.
On to `O=C(O)COc1ccc(O)c2c1C(=O)CCCC2=O`, for which the TGI in the assay with A498 renal, in the assay with HCC-2998 colon, in the assay with HCT-116 colon, with IGROV1 ovarian, in the assay with M14 melanoma and in the assay with OVCAR-4 ovarian was above 100 µM throughout. Besides, the TGI in the assay on SF-268 CNS, with SF-295 CNS, in the assay with SK-MEL-28 melanoma and with UACC-62 melanoma was above 100 µM each time.
Take `COc1cc(/C=C\c2ccccc2)cc(OC)c1OC`: the TGI with A498 renal was above 41.1 µM; in the assay on HCC-2998 colon, 48.5 µM; in the assay on HCT-116 colon it was above 100 µM; with IGROV1 ovarian it was above 100 µM; in the assay on M14 melanoma it was 22.1 µM; in the assay on OVCAR-4 ovarian, above 61 µM. The TGI in the assay on SF-268 CNS is 59.2 µM; in the assay with SF-295 CNS it was 7.21 µM; with SK-MEL-28 melanoma, above 100 µM; in the assay with UACC-62 melanoma, 41.2 µM.
Regarding `CCC(=O)O[C@H]1CC[C@H]2[C@@H]3CC[C@H]4CC(=O)[C@H](C)C[C@]4(C)[C@H]3CC[C@]12C`, the GI50 with A498 renal was 28 µM; in the assay with HCC-2998 colon, 49.7 µM; with HCT-116 colon, 4.49 µM; with IGROV1 ovarian it was above 60.5 µM; in the assay on M14 melanoma, 48.1 µM; in the assay on OVCAR-4 ovarian it was above 79.1 µM. Moreover, the GI50 was above 75.7 µM with SF-268 CNS, 20.9 µM with SF-295 CNS, above 88.7 µM in the assay with SK-MEL-28 melanoma and 13.9 µM with UACC-62 melanoma. Moreover, the TGI is above 100 µM in the assay with A498 renal; above 100 µM in the assay on HCC-2998 colon; above 42.6 µM in the assay with HCT-116 colon; above 100 µM in the assay on IGROV1 ovarian; above 100 µM with M14 melanoma; above 100 µM in the assay with OVCAR-4 ovarian. The TGI is above 100 µM with SF-268 CNS, above 78 µM in the assay with SF-295 CNS, above 100 µM with SK-MEL-28 melanoma and above 100 µM in the assay with UACC-62 melanoma.
Consider `COc1ccc(-c2oc3c(OC)c(OC)c(OC)c(O)c3c(=O)c2OC)cc1OC`, for which the TGI was above 64.8 µM with A498 renal; above 67 µM in the assay on HCC-2998 colon; above 100 µM in the assay on HCT-116 colon; 23.2 µM in the assay on IGROV1 ovarian; above 100 µM with M14 melanoma; above 100 µM in the assay on OVCAR-4 ovarian. Further, the TGI was above 55.1 µM in the assay with SF-268 CNS, above 76.5 µM in the assay with SF-295 CNS, above 100 µM with SK-MEL-28 melanoma and above 92 µM in the assay with UACC-62 melanoma.
Take `CCCCS(=O)CCC(N)C(=O)O` (configuration not stated): the TGI in the assay on A498 renal, in the assay with HCC-2998 colon, with HCT-116 colon, with IGROV1 ovarian, in the assay on M14 melanoma and in the assay with OVCAR-4 ovarian was above 100 µM in each case. The TGI in the assay with SF-268 CNS, with SF-295 CNS, in the assay on SK-MEL-28 melanoma and in the assay with UACC-62 melanoma was above 100 µM each time.
Take `C=CCN(/C=C1/C(=O)O[C@H](COC)[C@@]2(C)C1=C(O)C(=O)C1=C2[C@H](OC(C)=O)C[C@]2(C)C(=O)CC[C@@H]12)CC=C`: the GI50 with A498 renal is 0.0205 µM; in the assay on HCC-2998 colon it was 0.385 µM; in the assay on HCT-116 colon, 1.17 µM; in the assay on IGROV1 ovarian, 0.135 µM; in the assay on M14 melanoma, 2.95 µM; with OVCAR-4 ovarian it was 2.72 µM. The GI50 in the assay with SF-268 CNS is 1.71 µM; in the assay on SF-295 CNS it was 0.573 µM; with SK-MEL-28 melanoma, 1.1 µM; with UACC-62 melanoma, 0.144 µM. The TGI is 0.103 µM with A498 renal; above 7.08 µM in the assay with HCC-2998 colon; above 10 µM with HCT-116 colon; 6.81 µM in the assay with IGROV1 ovarian; above 10 µM in the assay on M14 melanoma; above 10 µM with OVCAR-4 ovarian. The TGI in the assay on SF-268 CNS is above 10 µM; with SF-295 CNS it was above 10 µM; in the assay with SK-MEL-28 melanoma, above 10 µM; in the assay with UACC-62 melanoma, 4.45 µM.
Regarding `NC1CCCCC1.[O]=[Ge].[O]=[Ge].[O]=[Ge][OH].[O]=[Ge][OH]`, the TGI in the assay with A498 renal, with HCC-2998 colon, in the assay on HCT-116 colon, with IGROV1 ovarian, in the assay on M14 melanoma and in the assay on OVCAR-4 ovarian was above 100 µM in each case. In addition, the TGI in the assay with SF-268 CNS, with SF-295 CNS, in the assay on SK-MEL-28 melanoma and in the assay on UACC-62 melanoma was above 100 µM in each case. Further, the GI50 with M14 melanoma and with SF-295 CNS was above 100 µM throughout.
For the molecule `CCCCC1CC(c2cccc([N+](=O)[O-])c2)=NO1` (configuration not stated), the TGI in the assay on A498 renal, in the assay with HCC-2998 colon, in the assay with HCT-116 colon, in the assay with IGROV1 ovarian, in the assay on M14 melanoma and in the assay on OVCAR-4 ovarian was above 100 µM each time. Besides, the TGI in the assay on SF-268 CNS, in the assay on SF-295 CNS, in the assay on SK-MEL-28 melanoma and in the assay with UACC-62 melanoma was above 100 µM each time.
With `Cc1ccc(/C(=N\N=C(N)N)c2ccccc2)cc1`, the GI50 with A498 renal was 0.272 µM; in the assay with HCC-2998 colon it was 0.241 µM; in the assay on HCT-116 colon, 0.342 µM; in the assay on IGROV1 ovarian, 0.459 µM; in the assay with M14 melanoma it was 0.285 µM; in the assay with OVCAR-4 ovarian, 0.791 µM. The GI50 in the assay on SF-268 CNS was 0.868 µM; in the assay with SF-295 CNS it was 0.306 µM; with SK-MEL-28 melanoma, 0.535 µM; in the assay on UACC-62 melanoma, 0.438 µM. The TGI in the assay on A498 renal was 1.02 µM; in the assay on HCC-2998 colon, 0.677 µM; in the assay on HCT-116 colon it was 11.3 µM; with IGROV1 ovarian, 31.4 µM; with M14 melanoma, 0.977 µM; in the assay with OVCAR-4 ovarian it was 18.6 µM. For the same molecule, the TGI stood at 17.3 µM in the assay with SF-268 CNS, 3.15 µM in the assay on SF-295 CNS, 15.4 µM in the assay on SK-MEL-28 melanoma and 15.8 µM in the assay with UACC-62 melanoma.
